# Experimental data reported in patent US10907212B2, “Inhibitors of cell adhesion” (Regents of the University of Minnesota, priority 2016, dated 2021).
# Where no end group is shown, it is not given here.
# Key:
# [1] = system: nectin 4 protein on NIH:OVCAR-5 cells; experiment: Effect of peptides on anti-Nectin-4 antibody binding to cells as determined by flow cytometry; type: cell-based, human; conditions: for IgG MFI: IgG control primary antibody; for nectin-4 antibody binding compared to untreated control cells (in words): flow cytometry; for Flow binding: summary table, Nectin-4 antibody binding relative to control = 100
# Experimental: Confluent monolayers of cells were detached from 75 cm^2 tissue culture flasks using Accutase cell dissociation buffer (Innovative Cell Technologies, San Diego, Calif.), washed, and labeled with mouse IgG or mAbs against Nectin-4 or Nectin-1 (2.5 μg/10^6 cells) in Flow Buffer [phosphate buffered saline (PBS) containing 2.5% newborn calf serum and 0.02% sodium azide] for 30 min at 4° C.. Cells were washed and incubated with goat anti-mouse IgG F(ab′)2 (Jackson ImmunoResearch, West Grove, Pa.), then washed again and incubated with streptavidin-allophycocyanin conjugate (Jackson ImmunoResearch, West Grove, Pa.) for 30 min each. Cells were washed and fixed in Flow Buffer containing 1% formaldehyde and analyzed in the University of Minnesota Flow Cytometry Resource with a BD Accuri™ C6 flow cytometer (BD Biosciences, San Jose, Calif.) using the Accuri™ software.
# Briefly, NIH:OVCAR-5 cells that natively express a moderate amount of nectin 4 protein were incubated for 30 minutes in 150 μg/mL of soluble peptide in DMSO. After incubation, the cells were washed, and then triple antibody stained using mouse anti-nectin 4 (or IgG control) primary antibody, biotinylated goat anti-mouse secondary antibody, and streptavidin APC tertiary antibody. Finally, utilizing the University of Minnesota flow core's Accuri C6 flow cytometer, the relative antibody binding affinity for control and peptide-treated samples was quantitated and compared. Data was collected for each of the 57 peptides generated.
# [2] = system: ovarian cancer cell aggregation and spheroid formation; experiment: Spheroid assay for peptides (visual scale +1 to +5); type: cell-based, human; conditions: visual scale of +1 to +5
# Experimental: Spheroids were formed from the NIH:OVCAR5 cell lines described above using the liquid overlay method. One milliliter of a single cell suspension was seeded at a concentration of 50,000 cells/ml in OptiMEM® media, into 24-well tissue culture plates coated with 0.5% Seakem agarose (in complete RPMI-1640). Plates were incubated at 37° C. in a humidified incubator with 5% CO2. At various time points up to 5 days, the plates were removed from the incubator and the spheroids were photographed with a Nikon CoolPix digital camera mounted on an Olympus CK2 inverted microscope with a 4× objective. The size of the spheroids was determined using the measure tool in Adobe Photoshop. The largest spheroids were quantified (20-90 spheroids/well), in a minimum of 8 wells, for a total of >300 spheroids per cell type.
# The clinical relevance is that by blocking the formation of spheroids, the cells will be more sensitive to chemotherapy (which targets the single cells that proliferate more rapidly than spheroids).
# The spheroid assay for peptides 1-30 were scored using a visual scale of +1 to +5. The controls were scored at +2 (24 hrs) and +4 (48 hrs). […] It may be harder to visually assess the size at 24 hours, since the spheroids are relatively small, but and perhaps some of the peptides are affecting cell division, and that is why the spheroids are smaller than the controls at 48 hours, but not 24 hrs (this can be easily assayed with an MTT assay).
# [3] = Run One, 150 μg/mL peptide, 30 minutes, Control 1 = 15,015
# [4] = Run One, 150 μg/mL peptide, 30 minutes, Control 1 = 1,670
# [5] = Run One, antibody binding relative to Control 1 = 100.00
# [6] = Run Three, 150 μg/mL peptide, 30 minutes, Control 3 = 13,070.20
# [7] = Run Three, antibody binding relative to Control 3 = 100.00
# [8] = Run Five, 150 μg/mL peptide, 30 minutes, Control 5 = 17,768.90
# [9] = Run Five, Control 5 = 2.142155332
# [10] = Run Five, antibody binding relative to Control 5 = 100
Substance,"N4 MFI [1, 6]","N4 MFI/IgG MFI ([1]; Run Three, Control 3 = 9.83)","IgG MFI ([1]; Run Three, Control 3 = 1330)","nectin-4 antibody binding, percent of control [1, 7]",nectin-4 antibody binding compared to untreated control cells (in words) ([1]; 150 μg/mL peptide),"N4 MFI [1, 8]","N4 MFI/IgG MFI [1, 9]","IgG MFI ([1]; Run Five, Control 5 = 8,294.87)","nectin-4 antibody binding, percent of control [1, 10]",other results
GQGLTLAASCTAEG-NH2 (listed as Homo sapiens) [Peptide 12],–,–,–,–,–,–,–,–,–,"N4 MFI [1, 3]: 11,052; IgG MFI [1, 4]: 2,827; N4 MFI/IgG MFI ([1]; Run One, Control 1 = 8.99): 3.91; nectin-4 antibody binding, percent of control [1, 5]: 61.63"
LSRLELEDEGVYIC-NH2 (listed as Homo sapiens) [Peptide 37],"46,393.69",11.38,4078,360.43,–,–,–,–,–,–
NGKPPSVVSWETRL-NH2 (listed as Homo sapiens) [Peptide 42],–,–,–,–,–,–,–,–,–,"N4 MFI ([1]; Run Four, 150 μg/mL peptide, 30 minutes, Control 4 = 9,631.58): 9,416.50; N4 MFI/IgG MFI ([1]; Run Four, Control 4 = 9.387504873): 7.497; IgG MFI ([1]; Run Four, Control 4 = 1,026): 1256; nectin-4 antibody binding, percent of control ([1]; Run Four, antibody binding relative to Control 4 = 100): 94.83"
NVAIYNPSMGVSVL-NH2 (listed as Homo sapiens) [Peptide 34],"14,542.93",9.77,1489,111.19,increased nectin-4 antibody binding,–,–,–,–,Flow binding [1]: 112%
NYSLAGTYICEATN-NH2 (listed as Homo sapiens) [Peptide 53],–,–,–,–,–,"40,909.47",1.37,"29,864.47",116.6,–
PAGELETSDVVTVV-NH2 (listed as Homo sapiens) [Peptide 1],–,–,–,–,reduction in nectin-4 antibody binding,–,–,–,–,"N4 MFI [1, 3]: 2,085; IgG MFI [1, 4]: 1,529; N4 MFI/IgG MFI ([1]; Run One, Control 1 = 8.99): 1.36; nectin-4 antibody binding, percent of control [1, 5]: 4.17"
QRITHILHVSFLAE-NH2 (listed as Homo sapiens) [Peptide 18],–,–,–,–,–,–,–,–,–,"Spheroid-24 ([2]; 24 hrs, Control = 2): 3; Spheroid-48 ([2]; 48 hrs, Control = 4): 5"
TNPIGTRSGQVEVN-NH2 (listed as Homo sapiens) [Peptide 54],–,–,–,–,–,"19,706.27",2.253,"8,747.26",115.7,–
TNWIEGTQAVLRAKKGQ-NH2 (listed as Homo sapiens) [Peptide 40],"10,121.20",7.11,1423,74.09,–,–,–,–,–,–
TWQKSTNGSKQNV-NH2 (listed as Homo sapiens) [Peptide 33],"10,425.01",8.31,1255,78.11,–,–,–,–,–,–
VLAPYRERVEFLRP-NH2 (listed as Homo sapiens) [Peptide 35],"15,767.33",8.59,1835,118.67,increased nectin-4 antibody binding,–,–,–,–,Flow binding [1]: 119%
VNITEFPYTPSPPEHGRRA-NH2 (listed as Homo sapiens) [Peptide 55],–,–,–,–,–,"19,498.24",2.29,"8,512.75",116,–
WTTLNGSLPKGVEA-NH2 (listed as Homo sapiens) [Peptide 51],–,–,–,–,reduction in nectin-4 antibody binding,"14,202.55",1.539,"9,230.44",52.48,Flow binding [1]: 53%
